Experimental data from patent US6737383B1, “Herbicidal oxadiazolidines” (priority 1999, dated 2004).

Assays:
[1] = test system: purple nutsedge; assay: Test B pre/postemergence purple nutsedge; assay type: in vivo, Cyperus rotundus
Outline: (§1)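 Response is a visual 0-to-10 score relative to untreated plants, where 0 means no effect and 10 means complete control, taken twelve to sixteen days after application. Treatments went onto soil at planting and onto foliage of 1- to 4-leaf plants, using a surfactant-containing non-phytotoxic solvent.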

[2] = test system: duck salad; assay: Test B flood test duck salad; assay type: in vivo, Heteranthera limosa
Outline: (§2)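 Flood test on plants grown to the 2-leaf stage; treated plants kept in greenhouse twelve to sixteen days, then visually rated against controls on a 0 (no effect) to 10 (complete control) scale.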

[3] = test system: surinam grass; assay: Test B pre/postemergence surinam grass; assay type: in vivo, Brachiaria decumbens
Outline: as §1

[4] = test system: corn; assay: Test B pre/postemergence corn; assay type: in vivo, Zea mays
Outline: as §1

[5] = test system: morningglory; assay: Test B pre/postemergence morningglory; assay type: in vivo, Ipomoea hederacea
Outline: as §1

[6] = test system: crabgrass; assay: Test B pre/postemergence crabgrass; assay type: in vivo, Digitaria sanguinalis
Outline: as §1

[7] = test system: rice; assay: Test B flood test rice; assay type: in vivo, Oryza sativa
Outline: as §2

[8] = test system: smallflower flatsedge; assay: Test B flood test smallflower flatsedge; assay type: in vivo, Cyperus difformis
Outline: as §2

[9] = test system: giant foxtail; assay: Test B pre/postemergence giant foxtail; assay type: in vivo, Setaria faberii
Outline: as §1

[10] = test system: rape; assay: Test B pre/postemergence rape; assay type: in vivo, Brassica napus
Outline: as §1

[11] = test system: soybean; assay: Test B pre/postemergence soybean; assay type: in vivo, Glycine max
Outline: as §1

[12] = test system: wild oat; assay: Test B pre/postemergence wild oat; assay type: in vivo, Avena fatua
Outline: as §1

[13] = test system: pigweed; assay: Test B pre/postemergence pigweed; assay type: in vivo, Amaranthus retroflexus
Outline: as §1

[14] = test system: sugar beet; assay: Test B pre/postemergence sugar beet; assay type: in vivo, Beta vulgaris
Outline: as §1

[15] = test system: bamyardgrass; assay: Test B flood test barnyardgrass; assay type: in vivo, Echinochloa crus-galli
Outline: as §2

[16] = test system: cocklebur; assay: Test B pre/postemergence cocklebur; assay type: in vivo, Xanthium strumarium
Outline: as §1

[17] = Postemergence, Rate 250 g/ha, scale 0 to 10, 0 is no effect, 10 is complete control
[18] = Postemergence, Rate 500 g/ha, scale of 0 to 10 where 0 is no effect and 10 is complete control
[19] = Preemergence, Rate 62 g/ha, scale 0 to 10 (0 no effect, 10 complete control)
[20] = Preemergence, Rate 125 g/ha, scale of 0 to 10 where 0 is no effect and 10 is complete control
[21] = Preemergence, Rate 250 g/ha, scale 0 to 10, 0 is no effect, 10 is complete control
[22] = Preemergence, Rate 500 g/ha, scale 0 to 10, 0 is no effect, 10 is complete control
[23] = Rate 62 g/ha, Postemergence, scale of 0 to 10 where 0 is no effect and 10 is complete control
[24] = Rate 62 g/ha, flood test species, Pre-emergence, visual evaluation after twelve to sixteen days
[25] = Rate 125 g/ha, under heading Pre-emergence, flood test species, visual evaluation after twelve to sixteen days
[26] = Rate 250 g/ha, Pre-emergence, flood-test species, scale 0 to 10, 0 is no effect, 10 is complete control
[27] = Rate 500 g/ha, Pre-emergence, flood test species, scale 0 to 10 (0 no effect, 10 complete control)
[28] = Postemergence, Rate 125 g/ha, scale 0 to 10, 0 is no effect, 10 is complete control

CC(C)N(C(=O)n1oc(=O)n(CC#N)c1=O)c1ccc(F)cc1 [Compound 395]
Plant response rating, Nutsedge [1, 17]: 0 | Nutsedge plant response rating [1, 18]: 0 | Plant response rating, Nutsedge [1, 19]: 0 | Plant response rating, Nutsedge [1, 20]: 0 | Nutsedge plant response rating [1, 21]: 0 | Nutsedge plant response rating [1, 22]: 0 | Nutsedge plant response rating [1, 23]: 0 | Plant response rating, Ducksalad (0 to 10 scale, 0 is no effect, 10 is complete control) [2, 24]: 0 | Ducksalad plant response rating (0 to 10 scale, 0 is no effect, 10 is complete control) [2, 25]: 0 | Ducksalad plant response rating [2, 26]: 0 | Ducksalad plant response rating [2, 27]: 0 | Plant response rating, B. signalgrass [3, 28]: 0 | Plant response rating, B. signalgrass [3, 17]: 0 | B. signalgrass plant response rating [3, 18]: 0 | Plant response rating, B. signalgrass [3, 19]: 0 | Plant response rating, B. signalgrass [3, 20]: 0 | B. signalgrass plant response rating ([3]; Preemergence, Rate 250 g/ha, scale of 0 to 10 where 0 is no effect and 10 is complete control): 0 | B. signalgrass plant response rating ([3]; Preemergence, Rate 500 g/ha, scale of 0 to 10 where 0 is no effect and 10 is complete control): 0 | B. signalgrass plant response rating [3, 23]: 0 | Plant response rating, Corn [4, 28]: 0 | Plant response rating, Corn [4, 17]: 0 | Corn plant response rating [4, 18]: 0 | Plant response rating, Corn [4, 19]: 0 | Plant response rating, Corn [4, 20]: 0 | Corn plant response rating [4, 21]: 0 | Corn plant response rating [4, 22]: 0 | Corn plant response rating [4, 23]: 0 | Plant response rating, Morningglory [5, 17]: 0 | Plant response rating, Morningglory [5, 19]: 0 | Plant response rating, Morningglory [5, 20]: 0 | Morningglory plant response rating [5, 21]: 0 | Morningglory plant response rating [5, 22]: 0 | Morningglory plant response rating [5, 23]: 0 | Plant response rating, Crabgrass [6, 28]: 2 | Plant response rating, Crabgrass [6, 17]: 2 | Crabgrass plant response rating [6, 18]: 5 | Plant response rating, Crabgrass [6, 19]: 0 | Plant response rating, Crabgrass [6, 20]: 0 | Crabgrass plant response rating [6, 21]: 0 | Crabgrass plant response rating [6, 22]: 2 | Crabgrass plant response rating [6, 23]: 0 | Plant response rating, Rice (0 to 10 scale, 0 is no effect, 10 is complete control) [7, 24]: 0 | Rice plant response rating (0 to 10 scale, 0 is no effect, 10 is complete control) [7, 25]: 0 | Rice plant response rating [7, 26]: 0 | Rice plant response rating [7, 27]: 0 | Plant response rating, S. Flatsedge (0 to 10 scale, 0 is no effect, 10 is complete control) [8, 24]: 0 | S. Flatsedge plant response rating (0 to 10 scale, 0 is no effect, 10 is complete control) [8, 25]: 0 | S. Flatsedge plant response rating [8, 26]: 0 | S. Flatsedge plant response rating [8, 27]: 0 | Plant response rating, Giant foxtail [9, 28]: 3 | Plant response rating, Giant foxtail [9, 17]: 5 | Giant foxtail plant response rating [9, 18]: 6 | Plant response rating, Giant foxtail [9, 19]: 0 | Plant response rating, Giant foxtail [9, 20]: 0 | Giant foxtail plant response rating [9, 21]: 0 | Giant foxtail plant response rating [9, 22]: 2 | Giant foxtail plant response rating [9, 23]: 0 | Plant response rating, Rape [10, 17]: 0 | Plant response rating, Rape [10, 19]: 0 | Plant response rating, Rape [10, 20]: 0 | Rape plant response rating [10, 21]: 0 | Rape plant response rating [10, 22]: 0 | Rape plant response rating [10, 23]: 0 | Plant response rating, Soybean [11, 17]: 1 | Soybean plant response rating [11, 18]: 1 | Plant response rating, Soybean [11, 19]: 0 | Plant response rating, Soybean [11, 20]: 0 | Soybean plant response rating [11, 21]: 0 | Soybean plant response rating [11, 22]: 0 | Soybean plant response rating [11, 23]: 0 | Wild oats plant response rating [12, 18]: 3 | Plant response rating, Wild oats [12, 19]: 0 | Plant response rating, Wild oats [12, 20]: 0 | Wild oats plant response rating [12, 21]: 0 | Wild oats plant response rating [12, 22]: 0 | Wild oats plant response rating [12, 23]: 0 | Plant response rating, Redroot pigweed [13, 17]: 0 | Redroot pigweed plant response rating [13, 18]: 0 | Plant response rating, Redroot pigweed [13, 19]: 0 | Plant response rating, Redroot pigweed [13, 20]: 0 | Redroot pigweed plant response rating [13, 21]: 0 | Redroot pigweed plant response rating [13, 22]: 0 | Redroot pigweed plant response rating [13, 23]: 0 | Plant response rating, Sugarbeets [14, 17]: 0 | Sugarbeets plant response rating [14, 18]: 0 | Plant response rating, Sugarbeets [14, 19]: 0 | Plant response rating, Sugarbeets [14, 20]: 0 | Sugarbeets plant response rating [14, 21]: 0 | Sugarbeets plant response rating [14, 22]: 0 | Sugarbeets plant response rating [14, 23]: 0 | Plant response rating, Barnyardgrass (0 to 10 scale, 0 is no effect, 10 is complete control) [15, 24]: 0 | Barnyardgrass plant response rating (0 to 10 scale, 0 is no effect, 10 is complete control) [15, 25]: 0 | Barnyardgrass plant response rating [15, 26]: 0 | Barnyardgrass plant response rating [15, 27]: 0 | Plant response rating, Cocklebur [16, 28]: 0 | Plant response rating, Cocklebur [16, 17]: 0 | Cocklebur plant response rating [16, 18]: 0 | Plant response rating, Cocklebur [16, 19]: 0 | Plant response rating, Cocklebur [16, 20]: 0 | Cocklebur plant response rating [16, 21]: 0 | Cocklebur plant response rating [16, 22]: 0 | Cocklebur plant response rating [16, 23]: 0
